Measurements from ChEMBL document CHEMBL1201862, “PubChem BioAssay data set” (2004).
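Five compound concentrations were applied to cells in 96-well plates for 48 hours; endpoints were derived by simple linear interpolation of the resulting dose-response curve. GI50: concentration for 50% inhibition of growth.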 Active and inactive are the calls of the source. Cut-off read from the data, not from the text of the source: active = GI50 up to about 1.1 µM and inactive = higher.

How the values were obtained:
Assay in all cases: NCI anticancer screen, dose series, 48 h
786-0 = test system: 786-0
A498 = test system: A498
A549 = test system: A549
ACHN = test system: ACHN
BT-549 = test system: BT-549
CAKI-1 = test system: CAKI-1
CCRF-CEM = test system: CCRF-CEM
COLO 205 = test system: COLO 205
DU-145 = test system: DU-145
EKVX = test system: EKVX
HCC 2998 = test system: HCC 2998
HCT-116 = test system: HCT-116
HCT-15 = test system: HCT-15
HL-60 = test system: HL-60
HOP-62 = test system: HOP-62
HT-29 = test system: HT-29
Hs-578T = test system: Hs-578T
IGROV-1 = test system: IGROV-1
K562 = test system: K562
KM12 = test system: KM12
LOX IMVI = test system: LOX IMVI
M14 = test system: M14
MCF7 = test system: MCF7
MDA-MB-231 = test system: MDA-MB-231
MDA-MB-435 = test system: MDA-MB-435
MDA-N = test system: MDA-N
MOLT-4 = test system: MOLT-4
Malme-3M = test system: Malme-3M
NCI-H226 = test system: NCI-H226
NCI-H23 = test system: NCI-H23
NCI-H460 = test system: NCI-H460
NCI-H522 = test system: NCI-H522
NCI/ADR-RES = test system: NCI/ADR-RES
OVCAR-3 = test system: OVCAR-3
OVCAR-4 = test system: OVCAR-4
OVCAR-5 = test system: OVCAR-5
OVCAR-8 = test system: OVCAR-8
PC-3 = test system: PC-3
RPMI-8226 = test system: RPMI-8226
RXF 393 = test system: RXF 393
SF-268 = test system: SF-268
SF-295 = test system: SF-295
SF-539 = test system: SF-539
SK-MEL-28 = test system: SK-MEL-28
SK-MEL-2 = test system: SK-MEL-2
SK-MEL-5 = test system: SK-MEL-5
SN12C = test system: SN12C
SNB-19 = test system: SNB-19
SNB-75 = test system: SNB-75
SR = test system: SR
SW-620 = test system: SW-620
T47D = test system: T47D
TK-10 = test system: TK-10
U-251 = test system: U-251
UACC-257 = test system: UACC-257
UACC-62 = test system: UACC-62
UO-31 = test system: UO-31

**Q.** What does the source list for CN(/N=C/c1ccc(OCc2cccc(COc3ccc(C=O)cc3)n2)cc1)c1cnn(-c2ccc(Cl)cc2Cl)c(=O)c1Cl?
**A.** GI50 (786-0): 81.8 µM (inactive); GI50 (A498): 48.5 µM (inactive); GI50 (A549): > 100 µM (inactive); GI50 (ACHN): 73.5 µM (inactive); GI50 (BT-549): 66.7 µM (inactive); GI50 (CAKI-1): > 100 µM (inactive); GI50 (CCRF-CEM): > 100 µM (inactive); GI50 (COLO 205): > 100 µM (inactive); GI50 (DU-145): > 100 µM (inactive); GI50 (EKVX): 16 µM (inactive); GI50 (HCC 2998): > 100 µM (inactive); GI50 (HCT-116): > 100 µM (inactive); GI50 (HCT-15): > 100 µM; GI50 (HL-60): > 100 µM (inactive); GI50 (HOP-62): 17.7 µM (inactive); GI50 (HT-29): > 100 µM (inactive); GI50 (Hs-578T): > 100 µM (inactive); GI50 (IGROV-1): 62.5 µM (inactive); GI50 (K562): > 100 µM (inactive); GI50 (KM12): > 100 µM (inactive); GI50 (LOX IMVI): 88.1 µM (inactive); GI50 (M14): > 100 µM (inactive); GI50 (MCF7): > 100 µM (inactive); GI50 (MDA-MB-231): 20.7 µM (inactive); GI50 (MDA-MB-435): > 100 µM (inactive); GI50 (MDA-N): > 100 µM (inactive); GI50 (MOLT-4): > 100 µM (inactive); GI50 (Malme-3M): 84.1 µM (inactive); GI50 (NCI-H226): > 100 µM (inactive); GI50 (NCI-H23): > 100 µM (inactive); GI50 (NCI-H460): > 100 µM (inactive); GI50 (NCI-H522): > 100 µM (inactive); GI50 (NCI/ADR-RES): 21.2 µM (inactive); GI50 (OVCAR-3): > 100 µM (inactive); GI50 (OVCAR-4): 6.9 µM (inactive); GI50 (OVCAR-5): > 100 µM (inactive); GI50 (OVCAR-8): > 100 µM (inactive); GI50 (PC-3): > 100 µM (inactive); GI50 (RPMI-8226): 53.1 µM (inactive); GI50 (RXF 393): 21.5 µM (inactive); GI50 (SF-268): 56 µM (inactive); GI50 (SF-295): 20.2 µM (inactive); GI50 (SF-539): 12.5 µM (inactive); GI50 (SK-MEL-28): > 100 µM (inactive); GI50 (SK-MEL-2): 33 µM (inactive); GI50 (SK-MEL-5): > 100 µM (inactive); GI50 (SN12C): > 100 µM (inactive); GI50 (SNB-19): 50.7 µM (inactive); GI50 (SNB-75): 11.4 µM (inactive); GI50 (SR): > 100 µM (inactive); GI50 (SW-620): > 100 µM (inactive); GI50 (T47D): > 100 µM (inactive); GI50 (TK-10): 64.9 µM (inactive); GI50 (U-251): 26.9 µM (inactive); GI50 (UACC-257): > 100 µM (inactive); GI50 (UACC-62): > 100 µM (inactive); GI50 (UO-31): > 100 µM (inactive)
